Assay [1] can be described thus: Cross-linking of azido-GD3 by SFY incorporated Siglec-7v in vitro (Western blot). It is filed as biochemical. Conditions: 60 μM Siglec-7v(127SFY), 2 mM azido-GD3. The protocol: FIGS. 17A-17D provide a comparative study between NHSF pretreated Siglec-7v (Siglec-7v-SF) and Siglec-7v(127SFY). […] Siglec-7v(127SFY) or Siglec-7v-SF was incubated with azido-GD3 or azido-lac followed with Western blot detection. The azido group was click reacted with alkyne-biotin for Western blot detection of GD3/lac. […] Cells were treated with protein, washed, stained with a fluorescently labeled antibody specific for the His×6 tag appended at the C-terminus of Siglec-7v, and quantified with flow cytometry. […] Pre-stained BT-20 cells were incubated with 12 μM Siglec-7v-SF or Siglec-7v(127SFY) for 2 h. Cells were then washed and incubated with NK-92 cells for 4 h. Cells were stained with propidium iodide and NK cytotoxicity was evaluated by flow cytometry. Control group: no protein treatment. The line and error bar represent mean±SEM; n=3 independent batches of Siglec-7v proteins. *** p<0.001; NS, not significant, multiple t test.
We then determined if SFY could enable Siglec-7v to cross-link the bound glycan ligand. Inspired by NHSF-mediated cross-linking of azido-GD3 through Lys on Siglec-7v protein, we incorporated SFY into individual Lys sites of Siglec-7v, including sites 20, 24, 75, 104, 127, 131, and 135. […] Cross-linking of azido-GD3 was detected for Siglec-7v(104SFY) and Siglec-7v(127SFY). […]

For assay [2], the target named is T1, Siglec-7v with azido-GD3 (Homo sapiens, UniProt Q9Y286, C41S).
T1 construct: made in house; host or cells: E. coli BL21(DE3)
Briefly: Small molecule mediated Siglec-7v cross-linking in vitro (Western blot). The format is biochemical. Conditions: for cross-linking of Siglec-7v with azido-GD3 (biotin band slightly above Siglec-7v): 60 μM Siglec-7v, 2 mM azido-GD3, 0.3 mM cross-linker, room temperature, UV for NHQM, HoQM. The protocol: We then investigated if the various function groups synthesized onto the cross-linkers (FIG. 1B) could achieve protein-glycan cross-linking using Siglec-7v and azido-GD3 as the model system. Siglec-7v (60 μM) was incubated with 2 mM azido-GD3 for 1 h at room temperature, followed by the addition of different cross-linkers to the solution. For samples treated with cross-linker NHQM or HoQM, UV light was applied to activate the cross-linker. Alkyne-biotin was subsequently clicked with azido-GD3 in the samples, and the biotin signal was detected with Western blot using streptavidin-HRP (FIG. 1E). […] (Ref. 20). The results here indicate that NHSF can be applied to cross-link protein-glycan interactions via the sulfonyl fluoride group.
To test if small molecule cross-linker could cross-link Siglec-7v with azido-GD3 and azido-lac, 60 μM Siglec-7v was incubated with 2 mM azido-GD3 or azido-lac in PBS buffer, pH 7.4 at room temperature for 1 hr. The solution was treated with or without 0.3 mM NHSF or NHBr or NHFS or NHQM or HoQM at room temperature for 1 hr, respectively. The NHQM or HoQM was then illuminated with or without UV for 15 mins at wavelength 365 nm. After that, 200 μM alkyne-biotin, 0.05 mM CuSO4, 1 mM THPTA and 1 mM sodium ascorbate were added and the reaction mixture was incubated at room temperature in dark environment for 0.5 hours. Samples were then boiled at 95° C. for 5 mins and run Western blot against 6× His tag antibody or streptavidin-horseradish peroxidase (HRP).
A general note: In western blotting, separated proteins are transferred to a membrane and probed.

T1 sequence (Q9Y286 with tags, fused parts or gaps C41S): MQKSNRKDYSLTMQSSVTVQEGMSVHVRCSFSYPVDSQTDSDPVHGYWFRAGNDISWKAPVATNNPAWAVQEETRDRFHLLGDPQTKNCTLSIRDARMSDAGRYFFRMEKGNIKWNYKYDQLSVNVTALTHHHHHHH

Take `CC(=O)N[C@H]1[C@H]([C@H](O)[C@H](O)CO)O[C@@](O[C@H]2[C@@H](O)[C@@H](CO)O[C@@H](O[C@H]3[C@H](O)[C@@H](O)C(O)O[C@@H]3CO)[C@@H]2O)(C(=O)O)C[C@@H]1O` (stereo partly shown) [3′-sialyllactose]: the “effect of added ligand on crosslinking of siglec-7v(127SFY) with azido-GD3” value in assay [1] is listed as “did not reduce”. As for `O=C(ON1C(=O)CCC1=O)c1ccc(OCc2ccccc2[N+](=O)[O-])c(C(F)F)c1` [NHQM], in assay [2], the “cross-linking of Siglec-7v with azido-GD3 (biotin band slightly above Siglec-7v)” value is recorded as “not”.

Take `O=C(CCCNC(=O)c1ccc(S(=O)(=O)F)cc1)ON1C(=O)CC(S(=O)(=O)[O-])C1=O.[Na+]` (stereo not shown) [NHSF—C3, Sodium 1-((4-(4-(fluorosulfonyl)benzamido)butanoyl)oxy)-2,5-dioxopyrrolidine-3-sulfonate]: the “cross-linking efficiency on further increase of the linker length” value in assay [2] (Siglec-7v with azido-GD3) is listed as “lowered”. Consider `O=C(Cc1ccc(OS(=O)(=O)F)cc1)ON1C(=O)CCC1=O` [NHFS, 2,5-dioxopyrrolidin-1-yl 2-(4-((fluorosulfonyl)oxy)-phenyl)acetate], for which the “cross-linking of Siglec-7v with azido-GD3 (biotin band slightly above Siglec-7v)” value in assay [2] is reported as “not”. The same measure, in the same setting: with `O=C(c1ccc(OCc2ccccc2[N+](=O)[O-])c(C(F)F)c1)N1CCN(C(=O)c2ccc(OCc3ccccc3[N+](=O)[O-])c(C(F)F)c2)CC1` [HoQM] the entry was “not”. On to `O=C(CCCCCCCNC(=O)c1ccc(S(=O)(=O)F)cc1)ON1C(=O)CC(S(=O)(=O)[O-])C1=O.[Na+]` (stereo not shown) [NHSF—C7, sodium 1-((8-(4-(fluorosulfonyl)benzamido)octanoyl)oxy)-2,5-dioxopyrrolidine-3-sulfonate], for which the “cross-linking efficiency on further increase of the linker length” value in assay [2] (Siglec-7v with azido-GD3) is listed as “lowered”. On to `O=C(CCNC(=O)c1ccc(S(=O)(=O)F)cc1)ON1C(=O)CC(S(=O)(=O)[O-])C1=O.[Na+]` (stereo not shown) [NHSF—C2, Sodium 1-((3-(4-(fluorosulfonyl)benzamido)propanoyl)oxy)-2,5-dioxopyrrolidine-3-sulfonate], for which, in assay [2] (Siglec-7v with azido-GD3), the “cross-linking band intensity in comparison with NHSF” value was found to be 1.5 fold.

The values are drawn from patent US20240252652A1, “PROTEINS HAVING UNNATURAL AMINO ACIDS AND METHODS OF USE” (The Regents of the University of California, priority 2021, published 2024).
